As a reminder, the IC50 is the concentration at which inhibition is half-maximal.

Data on 29 compounds can be found in patent publication US9212182B2, “Bicyclic sulfonamide compounds as sodium channel inhibitors” (AMGEN INC., priority 2013, dated 2015).

Like-named read-outs stand apart in the source and are kept apart here.

This assay addresses Nav 1.7 (Homo sapiens (Human), UniProt Q15858). The experiment in a line: in-vitro Nav 1.7 PX (IC50). Format: cell-based.

Chain of Nav 1.7 (Q15858 whole entry): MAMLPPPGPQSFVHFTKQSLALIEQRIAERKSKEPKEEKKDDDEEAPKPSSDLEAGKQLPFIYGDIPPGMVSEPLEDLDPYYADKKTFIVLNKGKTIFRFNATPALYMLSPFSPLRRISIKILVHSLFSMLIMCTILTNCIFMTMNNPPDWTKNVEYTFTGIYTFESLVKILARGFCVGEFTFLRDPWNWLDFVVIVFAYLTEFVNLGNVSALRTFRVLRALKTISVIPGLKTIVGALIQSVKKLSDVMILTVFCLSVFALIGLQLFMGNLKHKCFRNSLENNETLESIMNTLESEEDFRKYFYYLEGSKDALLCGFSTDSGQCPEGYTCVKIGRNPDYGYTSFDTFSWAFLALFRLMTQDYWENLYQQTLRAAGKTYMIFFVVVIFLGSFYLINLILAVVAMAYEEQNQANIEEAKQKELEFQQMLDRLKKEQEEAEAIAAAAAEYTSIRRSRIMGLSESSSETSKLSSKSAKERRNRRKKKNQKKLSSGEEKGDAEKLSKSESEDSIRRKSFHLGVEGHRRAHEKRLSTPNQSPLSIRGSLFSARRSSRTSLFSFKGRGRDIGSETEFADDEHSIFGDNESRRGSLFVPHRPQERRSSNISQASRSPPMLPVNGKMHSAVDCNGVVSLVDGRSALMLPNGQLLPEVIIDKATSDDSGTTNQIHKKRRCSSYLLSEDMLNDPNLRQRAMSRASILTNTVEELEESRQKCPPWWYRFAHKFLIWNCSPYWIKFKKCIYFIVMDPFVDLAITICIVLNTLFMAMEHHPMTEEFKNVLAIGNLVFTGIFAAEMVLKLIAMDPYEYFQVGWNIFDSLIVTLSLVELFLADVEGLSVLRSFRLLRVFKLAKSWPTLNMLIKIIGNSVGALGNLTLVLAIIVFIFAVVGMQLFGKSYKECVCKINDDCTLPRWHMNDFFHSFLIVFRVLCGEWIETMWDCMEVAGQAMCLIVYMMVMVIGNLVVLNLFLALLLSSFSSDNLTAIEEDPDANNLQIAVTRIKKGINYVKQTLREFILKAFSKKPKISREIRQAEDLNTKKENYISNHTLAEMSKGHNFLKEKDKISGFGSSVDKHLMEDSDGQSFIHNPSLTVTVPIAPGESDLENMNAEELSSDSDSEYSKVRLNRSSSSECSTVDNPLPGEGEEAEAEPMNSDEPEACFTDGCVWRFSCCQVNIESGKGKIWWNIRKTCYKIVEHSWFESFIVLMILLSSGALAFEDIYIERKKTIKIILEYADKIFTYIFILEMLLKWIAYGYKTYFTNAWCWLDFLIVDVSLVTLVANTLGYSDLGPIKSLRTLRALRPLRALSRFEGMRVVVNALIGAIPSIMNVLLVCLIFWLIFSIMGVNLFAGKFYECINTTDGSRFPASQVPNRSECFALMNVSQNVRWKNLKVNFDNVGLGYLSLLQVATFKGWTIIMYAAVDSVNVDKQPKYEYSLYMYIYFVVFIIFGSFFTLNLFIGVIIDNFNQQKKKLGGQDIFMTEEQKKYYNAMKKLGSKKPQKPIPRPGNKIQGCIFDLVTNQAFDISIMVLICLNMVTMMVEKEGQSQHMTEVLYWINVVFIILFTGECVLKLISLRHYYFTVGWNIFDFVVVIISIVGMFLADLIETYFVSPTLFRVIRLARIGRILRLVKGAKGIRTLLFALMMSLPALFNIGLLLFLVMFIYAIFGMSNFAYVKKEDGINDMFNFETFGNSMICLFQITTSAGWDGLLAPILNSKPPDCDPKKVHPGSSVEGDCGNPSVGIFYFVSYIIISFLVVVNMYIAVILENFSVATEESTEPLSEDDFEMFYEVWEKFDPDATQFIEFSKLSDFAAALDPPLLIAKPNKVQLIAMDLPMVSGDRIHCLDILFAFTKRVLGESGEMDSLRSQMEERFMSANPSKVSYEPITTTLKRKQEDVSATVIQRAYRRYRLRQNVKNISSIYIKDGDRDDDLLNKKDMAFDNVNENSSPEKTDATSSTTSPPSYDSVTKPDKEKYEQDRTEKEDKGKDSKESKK

Regarding `COc1cc(-c2cccc(OC(F)F)c2)c(F)cc1-n1c(=O)cnc2cc(S(=O)(=O)Nc3ccon3)ccc21` [Example 1193, 1-(3′-(difluoromethoxy)-2-fluoro-5-methoxy-4-biphenylyl)-N-3-isoxazolyl-2-oxo-1,2-dihydro-6-quinoxalinesulfonamide], the half-maximal inhibitory concentration (IC50) was 93 nM. `COc1cc(-c2cccc(C(F)(F)F)c2)ccc1-n1c(=O)ccc2cc(S(=O)(=O)Nc3cncc(C)n3)ccc21` [Example 950, 1-(3-methoxy-3′-(trifluoromethyl)-4-biphenylyl)-N-(6-methyl-2-pyrazinyl)-2-oxo-1,2-dihydro-6-quinolinesulfonamide] yielded an IC50 (in-vitro Nav 1.7 PX data) of 99 nM. As to `O=c1ccc2cc(S(=O)(=O)Nc3ccon3)ccc2n1-c1cc(F)c(Br)cc1OC1CCNC1` (centres unmarked) [Example 625, 1-(4-bromo-5-fluoro-2-(PYRROLIDIN-3-YLOXY)phenyl)-N-(isoxazol-3-yl)-2-oxo-1,2-dihydroquinoline-6-sulfonamide], for the setting “in-vitro Nav 1.7 PX data (PatchXpress)”, 5610 nM corresponded to half-maximal inhibition (IC50). The compound `COc1cc(-c2cccc(F)c2)c(Cl)cc1-n1c(=O)cc(C)c2cc(S(=O)(=O)Nc3ccon3)ccc21` [Example 348, P-1-(2-chloro-3′-fluoro-5-methoxy-[1,1′-biphenyl]-4-yl)-N-(isoxazol-3-yl)-4-methyl-2-oxo-1,2-dihydroquinoline-6-sulfonamide] came in with a half-maximal inhibitory concentration (IC50) of 159 nM. Consider `COc1cc(-c2cccc(C(F)(F)F)c2)ccc1-n1c(=O)ccc2cc(S(=O)(=O)Nc3ncccn3)c(F)cc21` [Example 982, 7-fluoro-1-(3-methoxy-3′-(trifluoromethyl)-4-biphenylyl)-2-oxo-N-2-pyrimidinyl-1,2-dihydro-6-quinolinesulfonamide], for which the IC50 (in-vitro Nav 1.7 PX data) came to 38 nM. `COc1cc(-c2cccc(F)c2)c(Cl)cc1-n1c(=O)ccc2cc(S(=O)(=O)Nc3ccon3)c(F)cc21` (atropisomer, axis not shown; (M)) [Example 357, (M)-1-(2-chloro-3′-fluoro-5-methoxy-[1,1′-biphenyl]-4-yl)-7-fluoro-N-(isoxazol-3-yl)-2-oxo-1,2-dihydroquinoline-6-sulfonamide]: inhibition was half-maximal at 40 nM (IC50). For the compound `COc1cc(-c2cc(Cl)cnc2OC)c(F)cc1-n1c(=O)ccc2cc(S(=O)(=O)Nc3ncc(F)cn3)ccc21` [Example 774, 1-(4-(5-chloro-2-methoxy-3-pyridinyl)-5-fluoro-2-methoxyphenyl)-N-(5-fluoro-2-pyrimidinyl)-2-oxo-1,2-dihydro-6-quinolinesulfonamide], it took 48 nM to reach half-maximal inhibition (in-vitro Nav 1.7 PX data) (IC50). Consider `COc1cc(-c2cc(OC)c(-n3c(=O)ccc4cc(S(=O)(=O)Nc5ncc(F)cn5)ccc43)cc2F)ccc1F` [Example 1010, 1-(2,4′-difluoro-3′,5-dimethoxy-4-biphenylyl)-N-(5-fluoro-2-pyrimidinyl)-2-oxo-1,2-dihydro-6-quinolinesulfonamide], for which, where the note is “in-vitro Nav 1.7 PX data”, half-maximal inhibition (IC50) required 74 nM. As for `COc1cc(-c2ccccc2Cl)c(F)cc1-n1c(=O)ccc2cc(S(=O)(=O)Nc3ccon3)ccc21` [Example 952, 1-(2′-chloro-2-fluoro-5-methoxy-4-biphenylyl)-N-3-isoxazolyl-2-oxo-1,2-dihydro-6-quinolinesulfonamide], half-maximal inhibition (in-vitro Nav 1.7 PX data) (IC50) was put at 62 nM. On to `COc1cc([C@H]2CC[C@@H](OC)CC2)c(F)cc1-n1c(=O)ccc2cc(S(=O)(=O)Nc3ccon3)ccc21` [Example 1086, 1-(5-fluoro-2-methoxy-4-(cis-4-methoxycyclohexyl)phenyl)-N-3-isoxazolyl-2-oxo-1,2-dihydro-6-quinolinesulfonamide, 1-(5-fluoro-2-methoxy-4-(trans-4-methoxycyclohexyl)phenyl)-N-3-isoxazolyl-2-oxo-1,2-dihydro-6-quinolinesulfonamide], for which half-maximal inhibition (in-vitro Nav 1.7 PX data) (IC50) was put at 3910 nM. `COc1cc(Br)c(F)cc1-n1c(=O)ccc2cc(S(=O)(=O)Nc3cc(OCC4CCCC4)ncn3)ccc21` (atropisomer, axis not shown; (P)) [Example 1185, (P)-1-(4-bromo-5-fluoro-2-methoxyphenyl)-N-(6-(cyclopentylmethoxy)-4-pyrimidinyl)-2-oxo-1,2-dihydro-6-quinolinesulfonamide] returned an IC50 of 6640 nM. Consider `COc1cc(C[C@@H]2CCOC2)c(F)cc1-n1c(=O)ccc2cc(S(=O)(=O)Nc3ccon3)ccc21` [Example 1123, 1-(5-fluoro-2-methoxy-4-((3R)-tetrahydro-3-furanylmethyl)phenyl)-N-3-isoxazolyl-2-oxo-1,2-dihydro-6-quinolinesulfonamide, 1-(5-fluoro-2-methoxy-4-((3S)-tetrahydro-3-furanylmethyl)phenyl)-N-3-isoxazolyl-2-oxo-1,2-dihydro-6-quinolinesulfonamide], for which, under “in-vitro Nav 1.7 PX data”, the half-inhibitory concentration (IC50) came to 1600 nM. On to `COc1cc(-c2cccc(OC(F)(F)F)c2)c(F)cc1-n1c(=O)ccc2cc(S(=O)(=O)Nc3ccon3)ccc21` [Example 728, 1-(2-fluoro-5-methoxy-3′-(trifluoromethoxy)-4-biphenylyl)-N-3-isoxazolyl-2-oxo-1,2-dihydro-6-quinolinesulfonamide], for which the IC50 (in-vitro Nav 1.7 PX data) stood at 8 nM. For the compound `COc1cc(-c2ccccc2F)c(F)cc1-n1c(=O)ccc2cc(S(=O)(=O)Nc3ccon3)ccc21` [Example 951, 1-(2,2′-difluoro-5-methoxy-4-biphenylyl)-N-3-isoxazolyl-2-oxo-1,2-dihydro-6-quinolinesulfonamide], half-maximal inhibition (in-vitro Nav 1.7 PX data) (IC50) required 90 nM.

As for `COc1cc(Br)c(F)cc1-n1c(=O)ccc2cc(S(=O)(=O)Nc3ccon3)ccc21` [Example 1105, 1-(4-bromo-5-fluoro-2-methoxyphenyl)-N-3-isoxazolyl-2-oxo-1,2-dihydro-6-quinolinesulfonamide], the IC50 (in-vitro Nav 1.7 PX data) is 307 nM. Same read-out and setting: the figure for `COc1cc(-c2cc(C)cc(F)c2)ccc1-n1c(=O)ccc2cc(S(=O)(=O)Nc3ccon3)ccc21` [Example 1015, 1-(3′-fluoro-3-methoxy-5′-methyl-4-biphenylyl)-N-3-isoxazolyl-2-oxo-1,2-dihydro-6-quinolinesulfonamide] is 12 nM; for `COc1cc(-c2cc(F)cc(C(F)(F)F)c2)ccc1-n1c(=O)ccc2cc(S(=O)(=O)Nc3ncccn3)ccc21` [Example 1097] it is 50 nM. `COc1cc(-c2ccc(C)c(F)c2)c(F)cc1-n1c(=O)ccc2cc(S(=O)(=O)Nc3ncco3)ccc21` [Example 1125, 1-(2,3′-difluoro-5-methoxy-4′-methyl-4-biphenylyl)-N-1,3-oxazol-2-yl-2-oxo-1,2-dihydro-6-quinolinesulfonamide] returned an IC50 (in-vitro Nav 1.7 PX data) of 81 nM. In turn, `COc1cc(-c2cnc(F)c(C)c2)c(F)cc1-n1c(=O)ccc2cc(S(=O)(=O)Nc3ccon3)ccc21` [Example 722, 1-(5-fluoro-4-(6-fluoro-5-methyl-3-pyridinyl)-2-methoxyphenyl)-N-3-isoxazolyl-2-oxo-1,2-dihydro-6-quinolinesulfonamide] displayed an IC50 (in-vitro Nav 1.7 PX data) of 178 nM.

Where the note is “in-vitro Nav 1.7 PX data”, `COc1cc(-c2cccc(C)c2)ccc1-n1c(=O)ccc2cc(S(=O)(=O)Nc3ncccn3)ccc21` [Example 1117, 1-(3-methoxy-3′-methyl-4-biphenylyl)-2-oxo-N-2-pyrimidinyl-1,2-dihydro-6-quinolinesulfonamide] registered an IC50 of 59 nM. Take `COc1cc(-c2cc(Cl)cnc2OC)c(F)cc1-n1c(=O)ccc2cc(S(=O)(=O)Nc3cccnn3)ccc21` [Example 775, 1-(4-(5-chloro-2-methoxy-3-pyridinyl)-5-fluoro-2-methoxyphenyl)-2-oxo-N-3-pyridazinyl-1,2-dihydro-6-quinolinesulfonamide]: the IC50 (in-vitro Nav 1.7 PX data) is 47 nM. The compound `COc1ccc(-c2cc(F)cc(Cl)c2)cc1-n1c(=O)ccc2cc(S(=O)(=O)Nc3ccncn3)ccc21` (atropisomer, axis not shown; (P)) [Example 611, (P)-1-(3′-chloro-5′-fluoro-4-methoxy-3-biphenylyl)-2-oxo-N-4-pyrimidinyl-1,2-dihydro-6-quinolinesulfonamide] had an IC50 (in-vitro Nav 1.7 PX data) of 29 nM. For the compound `COc1ccc(-c2cccc(F)c2)cc1-n1c(=O)ccc2cc(S(=O)(=O)Nc3ncccn3)ccc21` (atropisomer, axis not shown; (P)) [Example 606, (P)-1-(3′-fluoro-4-methoxy-3-biphenylyl)-2-oxo-N-2-pyrimidinyl-1,2-dihydro-6-quinolinesulfonamide], for the setting “in-vitro Nav 1.7 PX data”, it took 159 nM to reach half-maximal inhibition (IC50). `COc1cc(-c2ccc(Cl)c(C#N)c2)c(F)cc1-n1c(=O)ccc2cc(S(=O)(=O)Nc3ncccn3)ccc21` [Example 871, 1-(4′-chloro-3′-cyano-2-fluoro-5-methoxy-4-biphenylyl)-2-oxo-N-2-pyrimidinyl-1,2-dihydro-6-quinolinesulfonamide] came in with an IC50 (in-vitro Nav 1.7 PX data) of 44 nM. On to `COc1cc(-c2cccc(Cl)c2)c(Cl)cc1-n1c(=O)ccc2cc(S(=O)(=O)Nc3ccon3)ccc21` (atropisomer, axis not shown; (P)) [Example 459, (P)-1-(2,3′-dichloro-5-methoxy-[1,1′-biphenyl]-4-yl)-N-(isoxazol-3-yl)-2-oxo-1,2-dihydroquinoline-6-sulfonamide], for which half-maximal inhibition (IC50) was put at 12 nM. Where the note is “in-vitro Nav 1.7 PX data”, `COc1cc(-c2ccc(C(F)(F)F)nc2)c(F)cc1-n1c(=O)ccc2cc(S(=O)(=O)Nc3ccon3)ccc21` [Example 761, 1-(5-fluoro-2-methoxy-4-(6-(trifluoromethyl)-3-pyridinyl)phenyl)-N-3-isoxazolyl-2-oxo-1,2-dihydro-6-quinolinesulfonamide] showed an IC50 of 120 nM. The compound `COc1cc(-c2cccc(OC(F)F)c2)c(F)cc1-n1c(=O)ccc2cc(S(=O)(=O)Nc3cc(C)ncn3)ccc21` (atropisomer, axis not shown; (P)) [Example 1173, (P)-1-(3′-(difluoromethoxy)-2-fluoro-5-methoxy-4-biphenylyl)-N-(6-methyl-4-pyrimidinyl)-2-oxo-1,2-dihydro-6-quinolinesulfonamide] yielded a half-maximal inhibitory concentration (IC50) of 146 nM. In turn, `COc1cc(CC2CCCCC2)c(F)cc1-n1c(=O)ccc2cc(S(=O)(=O)Nc3ncco3)ccc21` [Example 1110, 1-(4-(cyclohexylmethyl)-5-fluoro-2-methoxyphenyl)-N-1,3-oxazol-2-yl-2-oxo-1,2-dihydro-6-quinolinesulfonamide] registered an IC50 (in-vitro Nav 1.7 PX data) of 52 nM. For `COc1nc(-c2ccc(Cl)c(C)c2)c(Cl)cc1-n1c(=O)ccc2cc(S(=O)(=O)Nc3ccon3)ccc21` [Example 1085, 1-(5-chloro-6-(4-chloro-3-methylphenyl)-2-methoxy-3-pyridinyl)-N-3-isoxazolyl-2-oxo-1,2-dihydro-6-quinolinesulfonamide], inhibition (in-vitro Nav 1.7 PX data) was half-maximal at 3440 nM (IC50).
